Where “and” joins values, the source holds several entries; their conditions need not be identical. Equal entries are not always repeated. Entries after “also recorded” stand apart in the source; their conditions may differ. Where two headings read alike, the source gives them in different places.
Tests used:
[1] = test system: B. pumilus ATCC 27142 spores; test: Log reduction of B. pumilus spores on spore strips treated with high-pressure/supercritical CO2 with or without additives, colony counting; type: cell-based
[2] = test system: B. atrophaeus ATCC 9372 spores
[3] = test system: B. anthracis ΔSterne-1 spores
[4] = test system: Vegetative G. stearothermophilus cells; conditions: 1.5-hour exposure, 28 bar, 25 °C; cited from earlier work
Lactobacillus plantarum = conditions: high-pressure CO2 treatment, suspension in distilled water at pH 6.0; cited from earlier work
[5] = test system: G. stearothermophilus spores; conditions: cited from earlier work
[6] = additive with CO2, conditions of Table 2
[7] = additive with CO2, 40 °C, 276 bar, 4 hr

OO [30% H2O2, hydrogen peroxide]
LOG REDUCTION [1]: 4.47 ± 0.64 log and 4.60 ± 0.02 log and 6.28 ± 0.46 log and 4.45 ± 0.31 log
deactivation in replicate experiments (in words) [1]: complete deactivation in two of the three replicate experiments
effectiveness of additive in deactivating B. pumilus spores (in words) [1]: highly effective; also recorded: the most effective additive among the additives examined
Log reduction [2]: 6.25
Log reduction [3]: 5.74

CCO [70% ETHANOL, ethanol]
effectiveness of additive in deactivating B. pumilus spores (in words) [1, 6]: Neither bulk water, 5 μL of 70% ethanol, nor 5 μL of 70% isopropanol resulted in the required log reduction
LOG REDUCTION [1, 7]: 0.27 ± 0.16 log
effectiveness of additive (in words) ([1]; dense-phase CO2, at 40 °C): neither bulk water, nor ethanol, nor isopropanol were effective additives

CC(C)O [70% ISOPROPANOL, isopropanol]
effectiveness of additive in deactivating B. pumilus spores (in words) [1, 6]: Neither bulk water, 5 μL of 70% ethanol, nor 5 μL of 70% isopropanol resulted in the required log reduction
LOG REDUCTION [1, 7]: 0.17 ± 0.06 log
effectiveness of additive (in words) ([1]; dense-phase CO2, at 40 °C): neither bulk water, nor ethanol, nor isopropanol were effective additives

O [BULK WATER, water]
effectiveness of additive (in words) [1]: neither bulk water, nor ethanol, nor isopropanol were effective additives
effectiveness of additive in deactivating B. pumilus spores (in words) [1]: Neither bulk water, 5 μL of 70% ethanol, nor 5 μL of 70% isopropanol resulted in the required log reduction

O=C=O [CO2, carbon dioxide]
log reduction [1]: 3.90 log
LOG REDUCTION ([1]; wetted spore strips with CO2, 4 hr, 103 bar, 60 °C): 1.91 ± 0.23 log
LOG REDUCTION ([1]; wetted spore strips with CO2, 4 hr, 276 bar, 50 °C): 0.58 ± 0.04 log
LOG REDUCTION ([1]; wetted spore strips with CO2, 4 hr, 276 bar, 60 °C): 3.06 ± 0.17 log
LOG REDUCTION ([1]; wetted spore strips with CO2, 4 hr, 276 bar, 80 °C): 3.02 ± 0.07 log
log reduction of vegetative cells [4]: more than 6 log
log reduction (Lactobacillus plantarum): more than 7 log
spores remained viable [5]: 80%

— patent US20100080790A1, “STERILIZATION USING HIGH-PRESSURE CARBON DIOXIDE” (University of South Carolina, priority 2005, published 2010)
